Measurements from US6063964A, “5-hydroxymethyl-2-aminotetralins as cardiovascular agents” (Zambon Group S.p.A., priority 1997, dated 2000).

Experiments:
[1] = molecular target: T1, dopaminergic receptors D2 (Oryctolagus cuniculus, UniProt G1T1Q0); test: D2 activity in the rabbit ear artery (REA), electrically stimulated isolated artery rings; conditions: rabbit central ear artery rings, electrically stimulated (10 Hz); cumulative administration; agonistic activity at peak of effect; read-out: D2 activity (REA) expressed as pD2, i.e. -logEC50 (converted)
T1 construct: The central ear artery was cut into 3 mm-rings; from tissue; host or cells: central ear artery rings of male New Zealand rabbits
Procedure: Evaluation of the D2 activity in the rabbit ear artery (REA)
Artery rings were prepared following the method described by Steinsland et al., Science, 1978, 443, 199, modified as follows.
Male New Zealand rabbits (weighing 2.5-3 Kg) were sacrificed by a pentobarbital intravenous injection and bled. The central ear artery was cut into 3 mm-rings.
The samples were placed into a 25 ml-bath containing a Krebs solution (mM/l): sodium chloride 118, potassium chloride 4.7, calcium chloride 2.5, magnesium sulphate 1.2, sodium hydrocarbonate 25, potassium biphosphate 1.2, glucose 11.1, balanced with oxygen 95%/carbon dioxide 5% and maintained at 35±1° C. The Krebs solution was added with EDTA (10 μM) to prevent the cathecolamine oxidation, with desipramine (0,1 μM) and corticosterone (30 μM) to stop the neuronal and extraneuronal cathecolamine re-uptake.
The samples were electrically stimulated (10 Hz, 1 msec., 40-80 mA, 500 msec long) at intervals of 5 minutes.
(§1) The tested compounds were cumulatively administered.
(§2) Dopamine was used as reference compound.

[2] = molecular target: dopaminergic receptors D1 (Oryctolagus cuniculus, UniProt G1SML2); test: D1 activity on the rabbit splenic artery (RSA), isolated artery rings contracted with U46619; conditions: cumulative administration, agonistic activity at peak of effect
Procedure: Tests of dopaminergic activity on isolated tissues Evaluation of the D1 activity on the rabbit splenic artery (RSA)
Artery rings were prepared according to Semeraro et al., Naunyn. Schnied. Arch. […] These were contracted with U46619 (9,11-dideoxy-11α, 9α -epoxy-methanprostaglandine F2 α) at a submaximal concentration of […].
as §1, §2

T1 sequence (G1T1Q0 1-443): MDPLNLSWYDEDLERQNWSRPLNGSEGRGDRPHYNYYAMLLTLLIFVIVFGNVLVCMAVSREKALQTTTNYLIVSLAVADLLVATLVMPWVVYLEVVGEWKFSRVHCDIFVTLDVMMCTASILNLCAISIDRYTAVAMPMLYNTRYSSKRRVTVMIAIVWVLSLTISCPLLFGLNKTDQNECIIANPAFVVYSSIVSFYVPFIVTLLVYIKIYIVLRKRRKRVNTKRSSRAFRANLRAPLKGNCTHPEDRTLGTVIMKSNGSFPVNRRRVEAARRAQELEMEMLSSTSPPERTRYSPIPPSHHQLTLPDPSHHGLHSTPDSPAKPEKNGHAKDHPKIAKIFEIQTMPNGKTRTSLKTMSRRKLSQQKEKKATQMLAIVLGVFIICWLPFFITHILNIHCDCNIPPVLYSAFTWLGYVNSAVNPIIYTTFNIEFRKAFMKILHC
dopaminergic receptors D1, sequence (G1SML2 1-448): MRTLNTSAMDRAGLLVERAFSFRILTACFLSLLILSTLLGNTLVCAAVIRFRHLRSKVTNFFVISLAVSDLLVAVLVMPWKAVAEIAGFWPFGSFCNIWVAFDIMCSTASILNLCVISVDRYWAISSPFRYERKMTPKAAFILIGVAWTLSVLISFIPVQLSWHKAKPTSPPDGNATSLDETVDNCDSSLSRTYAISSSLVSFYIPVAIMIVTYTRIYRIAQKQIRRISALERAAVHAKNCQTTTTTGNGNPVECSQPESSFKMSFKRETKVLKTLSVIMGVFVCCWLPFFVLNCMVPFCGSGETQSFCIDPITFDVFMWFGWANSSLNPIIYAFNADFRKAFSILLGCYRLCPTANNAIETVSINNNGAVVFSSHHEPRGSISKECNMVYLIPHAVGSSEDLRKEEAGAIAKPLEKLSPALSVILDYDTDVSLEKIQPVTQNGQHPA

Structure (SMILES)	EC50 [1] [nM]	D1 activity (RSA) expressed as pD2, i.e. -logEC50 [2]
NCCc1ccc(O)c(O)c1 [Dopamine, reference compound]	15.8	
CCCN(CCC)[C@H]1CCc2c(ccc(O)c2CO)C1.O=C(O)/C=C\C(=O)O [Example 6, (S)-N,N-dipropyl-6-hydroxy-5-hydroxymethyl-1,2,3,4-tetrahydro-2-naphthylamine maleate]	10	6.0
